# Reference: patent publication US8541473B2, “3-aminoxalyl-aminobenzamide derivatives and insecticidal and miticidal agents containing same as active ingredient” (Agro-Kanesho Co., Ltd., priority 2009, dated 2013)
# What was measured:
# Type in all cases: in vivo
# [1] = tested on: female adults of Tetranychus urticae; assay: Miticidal effect on adults of Tetranychus urticae (spray on bean leaf-disks); conditions: for rate of killed adults: 4 days after drug-spray, agonized adults regarded as killed; for insecticidal effect: comparative compounds, result in words, stated against the 50 ppm result
# Experimental: A polyethylene cup having a volume of 430 ml and filled with water was covered with a cap in which a hole (diameter: about 5 mm) had been formed at the center thereof. A cut having a width of about 5 mm was made on a circular filter paper having a diameter of 6.5 cm, the strip-like portion of the filter paper, which hung down, was inserted into the cup through the hole thereof in such a manner that the portion was immersed in the water contained in the cup, and absorbent cotton was put on the filter paper so that the water in the cup was always supplied to the absorbent cotton. Then, two leaf-disks (2 cm×5 cm) prepared from the primary leaves of bean were put on the absorbent cotton and then these two leaf-disks were inoculated with 10 female adults of Tetranychus urticae. This cup was placed in a cylinder of acrylic resin having a height of 50 cm and an inner diameter of 10 cm and a water-diluted emulsion prepared according to the same procedures used in the foregoing drug-preparation Example 1 was then sprayed on each cup in an amount of 1.35 ml per cup using an air brush (one concentration, once repeated). After the agricultural chemical was sprayed, the cups were kept in a thermostatic chamber maintained at a temperature of 25° C. After 4 days from the drug-spray, the adults were examined, under the observation by a prism binocular, for whether they were died or not and whether they were in agony or not and the rates of killed mites (adults) (%) were determined, while the agonized adults were regarded as killed ones. In this respect, the comparative compounds used in this test were compounds A and B disclosed in JP-A-2006-306771.
# [2] = tested on: nymphs of Myzus persicae; assay: Effect of killing larvae of Myzus persicae (leaf piece immersion); conditions: for rate of killed nymphs: 7th day after treatment, agonized nymphs regarded as killed; for insecticidal effect: comparative compounds, result in words, stated against the 50 ppm result
# Experimental: Three each of adults of Myzus persicae were inoculated on a cut piece (having a size of 3 cm×4 cm) of the leaf of Chinese cabbage and they were made breed for 48 hours within a thermostatic chamber maintained at a temperature of 25° C. After the removal of the adults, each cut piece of the leaf was immersed in a water-diluted emulsion prepared according to the same procedures used in the foregoing Drug-Preparation Example 1 for 5 seconds, and then kept in a thermostatic chamber maintained at 25° C. On 7th day after the foregoing treatment, the nymphs were inspected for whether they were died or not and whether they were in agony or not and the rates (%) of killed nymphs of the plant lice were determined, while the agonized nymphs were regarded as killed ones. In this respect, the comparative compounds used in this test were compounds A and B disclosed in JP-A-2006-306771.
# [3] = tested on: larvae of Plutella xylostella; assay: Insecticidal effect on larvae of Plutella xylostella (spray on potted Chinese cabbage); conditions: for rate of killed insects (larvae): 5 days after release of larvae, agonized larvae regarded as killed; for insecticidal effect: comparative compounds, result in words, stated against the 500 ppm result
# Experimental: The seeds of Chinese cabbage were sowed in a pot and then the seedlings were raised over 3 weeks. A water-diluted emulsion prepared according to the procedures used in the foregoing drug-preparation Example 1 was sufficiently sprayed on the leaves of these potted plants using an air brush (one concentration, once repeated). After the drug-containing liquid was air-dried, the plants were kept in a thermostatic chamber maintained at 25° C. and the larvae of the insect were set free. After 5 days from the release of the larvae, the latter was examined for whether they were died or not and whether they were in agony or not and the rates of killed insects (larvae) (%) were determined, while the agonized larvae were regarded as killed ones. In this respect, the comparative compounds used in this test were compounds A and B disclosed in JP-A-2006-306771 (Patent Document 25).
smiles,measurement,setting,value
CCc1cc(C(F)(C(F)(F)F)C(F)(F)F)cc(C)c1NC(=O)c1cccc(NC(=O)C(=O)N(CC)C(C)(C)C)c1 [Compound 1-50],rate of killed adults,[1]; 12.5 ppm,100%
CCc1cc(C(F)(C(F)(F)F)C(F)(F)F)cc(C)c1NC(=O)c1cccc(NC(=O)C(=O)N(C)CC(F)(F)F)c1 [Compound 1-87],rate of killed nymphs,[2]; 5 ppm,100%
same,rate of killed nymphs,[2]; 50 ppm,100%
CCc1cc(C(F)(F)C(F)(F)C(F)(F)F)cc(C)c1NC(=O)c1cccc(NC(=O)C(=O)N(C)CC(F)(F)F)c1 [Compound 2-3],rate of killed insects (larvae),[3]; 12.5 ppm,100%
CCc1cc(C(F)(C(F)(F)F)C(F)(F)F)cc(C)c1NC(=O)c1cccc(NC(=O)C(=O)N(C)C2CCC2)c1 [Compound 1-45],rate of killed insects (larvae),[3]; 12.5 ppm,100%
Cc1cc(C(F)(C(F)(F)F)C(F)(F)F)cc(I)c1NC(=O)c1cccc(NC(=O)C(=O)N(C)C(C)(C)C)c1 [Compound 1-65],rate of killed nymphs,[2]; 12.5 ppm,100%
CCc1cc(C(F)(C(F)(F)F)C(F)(F)F)cc(C)c1NC(=O)c1cccc(NC(=O)C(=O)N(C)C(C)(C)C)c1 [Compound 1-44],rate of killed nymphs,[2]; 50 ppm,100%
same,rate of killed adults,[1]; 5 ppm,100%
same,rate of killed insects (larvae),[3]; 5 ppm,100%
CCc1cc(C(F)(C(F)(F)F)C(F)(F)F)cc(C)c1NC(=O)c1cccc(NC(=O)C(=O)N(C)C(C)C)c1 [Compound 1-40],rate of killed adults,[1]; 5 ppm,100%
Cc1cc(C(F)(C(F)(F)F)C(F)(F)F)cc(C)c1NC(=O)c1cccc(NC(=O)C(=O)NCCCl)c1 [Compound 1-75],rate of killed insects (larvae),[3]; 5 ppm,100%
CCN(CC)C(=O)C(=O)Nc1cccc(C(=O)Nc2c(C)cc(C(F)(C(F)(F)F)C(F)(F)F)cc2C)c1 [Compound 1-30],rate of killed insects (larvae),[3]; 50 ppm,100%
Cc1cc(C(F)(C(F)(F)F)C(F)(F)F)cc(C)c1NC(=O)c1cccc(NC(=O)C(=O)N(C)C(C)(C)C)c1 [Compound 1-28],rate of killed nymphs,[2]; 50 ppm,100%
same,rate of killed adults,[1]; 5 ppm,100%
same,rate of killed insects (larvae),[3]; 5 ppm,100%
Cc1cc(C(F)(C(F)(F)F)C(F)(F)F)cc(C)c1NC(=O)c1cccc(NC(=O)C(N)=O)c1 [Compound 1-1],rate of killed insects (larvae),[3]; 500 ppm,100%
CCN(C)C(=O)C(=O)Nc1cccc(C(=O)Nc2c(C)cc(C(F)(C(F)(F)F)C(F)(F)F)cc2Br)c1 [Compound 1-62],rate of killed insects (larvae),[3]; 12.5 ppm,100%
same,rate of killed insects (larvae),[3]; 50 ppm,100%
same,rate of killed insects (larvae),[3]; 500 ppm,100%
CCc1cc(C(F)(C(F)(F)F)C(F)(F)F)cc(C)c1NC(=O)c1cccc(NC(=O)C(=O)N(CC)CC(F)(F)F)c1 [Compound 1-97],rate of killed nymphs,[2]; 12.5 ppm,100%
"COC(=O)C(=O)Nc1cccc(C(=O)Nc2c(C)cc(C(F)(C(F)(F)F)C(F)(F)F)cc2C)c1 [compound A, reference compound]",insecticidal effect,[2],did not show any insecticidal effect
same,insecticidal effect,[1],did not show any insecticidal effect
same,insecticidal effect,[3],did not show any insecticidal effect
COc1cc(C(F)(C(F)(F)F)C(F)(F)F)cc(Cl)c1NC(=O)c1cccc(NC(=O)C(=O)N(C)CC(F)(F)F)c1 [Compound 1-112],rate of killed adults,[1]; 50 ppm,100%
same,rate of killed insects (larvae),[3]; 12.5 ppm,100%
same,rate of killed insects (larvae),[3]; 50 ppm,100%
CCc1cc(C(F)(C(F)(F)F)C(F)(F)F)cc(C)c1NC(=O)c1cccc(NC(=O)C(=O)N(C)CC(F)F)c1 [Compound 1-100],rate of killed adults,[1]; 12.5 ppm,100%
Cc1cc(C(F)(C(F)(F)F)C(F)(F)F)cc(C)c1NC(=O)c1cccc(NC(=O)C(=O)N(C)C(C)C)c1 [Compound 1-24],rate of killed nymphs,[2]; 50 ppm,100%
Cc1cc(C(F)(C(F)(F)F)C(F)(F)Br)cc(C)c1NC(=O)c1cccc(NC(=O)C(=O)N(C)CC(F)(F)F)c1 (centres unmarked) [Compound 2-15],rate of killed nymphs,[2]; 12.5 ppm,100%
CCc1cc(C(F)(F)C(F)(F)C(F)(F)F)cc(C)c1NC(=O)c1cccc(NC(=O)C(=O)N(C)C(C)(C)C)c1 [Compound 2-2],rate of killed nymphs,[2]; 12.5 ppm,100%
CCc1cc(C(F)(C(F)(F)F)C(F)(F)F)cc(C)c1NC(=O)c1cccc(NC(=O)C(=O)N(C)C(C)(C)CC)c1 [Compound 1-46],rate of killed adults,[1]; 12.5 ppm,100%
Cc1cc(C(F)(C(F)(F)F)C(F)(F)F)cc(C)c1NC(=O)c1cccc(NC(=O)C(=O)NCCBr)c1 [Compound 1-80],rate of killed insects (larvae),[3]; 500 ppm,100%
Cc1cc(C(F)(C(F)(F)F)C(F)(F)F)cc(C)c1NC(=O)c1cccc(NC(=O)C(=O)NCCCCl)c1 [Compound 1-83],rate of killed insects (larvae),[3]; 50 ppm,100%
Cc1cc(C(F)(C(F)(F)F)C(F)(F)F)cc(C)c1NC(=O)c1cccc(NC(=O)C(=O)N(C)C)c1 [Compound 1-21],rate of killed nymphs,[2]; 50 ppm,100%
Cc1cc(C(F)(C(F)(F)F)C(F)(F)F)ccc1NC(=O)c1cccc(NC(=O)C(=O)N(C)C)c1 [Compound 1-53],rate of killed insects (larvae),[3]; 50 ppm,100%
CCc1cc(C(F)(C(F)(F)F)C(F)(F)F)cc(CC)c1NC(=O)c1cccc(NC(=O)C(=O)N(C)CC)c1 [Compound 1-57],rate of killed insects (larvae),[3]; 5 ppm,100%
Cc1cc(C(F)(C(F)(F)F)C(F)(F)F)cc(C)c1NC(=O)c1cccc(NC(=O)C(=O)NC2CCCC2)c1 [Compound 1-19],rate of killed insects (larvae),[3]; 50 ppm,100%
CCc1cc(C(F)(C(F)(F)F)C(F)(F)F)cc(C)c1NC(=O)c1cccc(NC(=O)C(=O)N(C)CCCl)c1 [Compound 1-78],rate of killed adults,[1]; 50 ppm,100%
CCc1cc(C(F)(C(F)(F)F)C(F)(F)F)cc(Br)c1NC(=O)c1cccc(NC(=O)C(=O)N(C)CC(F)F)c1 [Compound 1-109],rate of killed nymphs,[2]; 12.5 ppm,100%
same,rate of killed nymphs,[2]; 50 ppm,100%
same,rate of killed adults,[1]; 12.5 ppm,100%
same,rate of killed adults,[1]; 50 ppm,100%
same,rate of killed insects (larvae),[3]; 12.5 ppm,100%
same,rate of killed insects (larvae),[3]; 50 ppm,100%
same,rate of killed insects (larvae),[3]; 500 ppm,100%
CCN(C)C(=O)C(=O)Nc1cccc(C(=O)Nc2c(Br)cc(C(F)(C(F)(F)F)C(F)(F)F)cc2C(C)C)c1 [Compound 1-74],rate of killed adults,[1]; 50 ppm,100%
"CCOC(=O)C(=O)Nc1cccc(C(=O)Nc2c(C)cc(C(F)(C(F)(F)F)C(F)(F)F)cc2C)c1 [compound B, reference compound]",insecticidal effect,[2],did not show any insecticidal effect
same,insecticidal effect,[1],did not show any insecticidal effect
same,insecticidal effect,[3],did not show any insecticidal effect
"CCc1cc(C(F)(C(F)(F)F)C(F)(F)F)cc(C)c1NC(=O)c1cccc(NC(=O)C(=O)N(C)CCF)c1 [Compound 1-103, 3-(N-(2-fluoroethyl)-N-methylaminooxalylamino)-N-(2-ethyl-4-heptafluoroisopropyl-6-methyl)phenylbenzamide]",rate of killed adults,[1]; 12.5 ppm,100%
CCN(C)C(=O)C(=O)Nc1cccc(C(=O)Nc2c(Cl)cc(C(F)(C(F)(F)F)C(F)(F)F)cc2OC(F)(F)F)c1 [Compound 1-115],rate of killed nymphs,[2]; 12.5 ppm,100%
"Cc1cc(C(F)(C(F)(F)F)C(F)(F)F)cc(C)c1NC(=O)c1cccc(NC(=O)C(=O)N2CCCC2)c1 [Compound 1-33, 3-(pyrrolidin-1-yl-oxalylamino)-N-(2,6-dimethyl-4-heptafluoroisopropyl)phenylbenzamide]",rate of killed nymphs,[2]; 50 ppm,100%
CC(C)c1cc(C(F)(C(F)(F)F)C(F)(F)F)cc(Br)c1NC(=O)c1cccc(NC(=O)C(=O)N(C)CC(F)(F)F)c1 [Compound 1-96],rate of killed adults,[1]; 12.5 ppm,100%
same,rate of killed insects (larvae),[3]; 12.5 ppm,100%
CCc1cc(C(F)(C(F)(F)F)C(F)(F)F)cc(C)c1NC(=O)c1cccc(NC(=O)C(=O)N(C)C2CCCC2)c1 [Compound 1-47],rate of killed nymphs,[2]; 50 ppm,100%
same,rate of killed insects (larvae),[3]; 50 ppm,100%
